Measurements taken from ChEMBL document CHEMBL6177980 (J Med Chem, 2025).

Columns and labels:
[1] = Toxicity in Sprague-Dawley rat assessed as maximum tolerated dose; conditions: in vivo
[2] = Prodrug conversion in C57BL/6J mouse assessed as AUC (0 to t) of 4'-Fluorouridine metabolite at 2 mg/kg, po by LC-MS/MS analysis; assay type: ADME, organism-based; conditions: in vivo
[3] = Prodrug conversion in Sprague-Dawley rat assessed as Cmax of 4'-Fluorouridine metabolite at 2 mg/kg, po by LC-MS/MS analysis; assay type: ADME, organism-based; conditions: in vivo
[4] = Prodrug conversion in Sprague-Dawley rat assessed as 4'-Fluorouridine metabolite formation in thymus at 6 mg/kg, po measured for 0.5 to 24 hrs by LC-MS/MS analysis; assay type: ADME, organism-based; conditions: in vivo, time 0.5-24 hrs
[5] = AUC (0 to t) in fasted Sprague-Dawley rat at 23 mg/kg, po by LC-MS/MS analysis; assay type: ADME, organism-based; conditions: in vivo
[6] = tested on: Mammarenavirus choriomeningitidis; experiment: Antiviral activity against LCMV infected in C57BL/6-Prf1tm1Sdz/J mouse assessed as reduction in viral copy number in liver treated orally once daily for 7 days by RT-qPCR analysis; assay type: functional, organism-based; conditions: dose 1-5 mg/kg, route po, time 7.0 day
[7] = Prodrug conversion in Sprague-Dawley rat assessed as AUC (0 to t) of 4'-Fluorouridine metabolite at 2 mg/kg, po by LC-MS/MS analysis; assay type: ADME, organism-based; conditions: in vivo
[8] = Prodrug conversion in C57BL/6J mouse assessed as half life of 4'-Fluorouridine metabolite treated orally by LC-MS/MS analysis; assay type: ADME; conditions: in vivo, po
[9] = Prodrug conversion in Sprague-Dawley rat assessed as 4'-Fluorouridine metabolite formation in lung at 6 mg/kg, po measured for 0.5 to 24 hrs by LC-MS/MS analysis; assay type: ADME, organism-based; conditions: in vivo, time 0.5-24 hrs
[10] = Stability of compound at pH 4.0 assessed as change in purity at 1 mg/ml incubated for 24 hrs by HPLC analysis; assay type: physicochemical; conditions: buffer, pH 4, 24 h
[11] = Stability in Sprague-Dawley rat plasma administered orally or intravenously; assay type: ADME, cell-free; conditions: po
[12] = Prodrug conversion in Sprague-Dawley rat assessed as Cmax of 4'-Fluorouridine metabolite at 20 mg/kg, po by LC-MS/MS analysis; assay type: ADME, organism-based; conditions: in vivo
[13] = tested on: Mammarenavirus choriomeningitidis; experiment: Antiviral activity against LCMV infected in C57BL/6-Prf1tm1Sdz/J mouse assessed as reduction in viral copy number in lung treated orally once daily for 7 days by RT-qPCR analysis; assay type: functional, organism-based; conditions: dose 1-5 mg/kg, route po, time 7.0 day
[14] = tested on: Mammarenavirus choriomeningitidis; experiment: Antiviral activity against LCMV infected in C57BL/6-Prf1tm1Sdz/J mouse assessed as reduction in viral titer in kidney treated orally once daily for 7 days by RT-qPCR analysis; assay type: functional, organism-based; conditions: dose 1-5 mg/kg, route po, time 7.0 day
[15] = tested on: HepG2; experiment: Mitochondrial toxicity in human HepG2 cells cultured in galactose containing medium at 100 uM; assay type: cell-based; conditions: hepg2, 100 µM
[16] = Prodrug conversion in Sprague-Dawley rat assessed as AUC (0 to t) of 4'-Fluorouridine metabolite at 6 mg/kg/day, po treated for 7 days by LC-MS/MS analysis; assay type: ADME, organism-based; conditions: in vivo, 168 h, time 7 day
[17] = Prodrug conversion in Sprague-Dawley rat assessed as 4'-Fluorouridine-NTP metabolite formation in spleen at 6 mg/kg, po measured for 0.5 to 24 hrs by LC-MS/MS analysis; assay type: ADME, organism-based; conditions: in vivo, time 0.5-24 hrs
[18] = Stability in SGF assessed as compound degradation measured for 24 hrs by HPLC analysis; assay type: physicochemical; conditions: simulated gastric fluid (SGF), read-out: Drug degradation
[19] = tested on: A549; experiment: Cytotoxicity against human A549 cells up to 100 uM; assay type: toxicity, cell-based; conditions: a549, 100 µM
[20] = Prodrug conversion in C57BL/6J mouse assessed as AUC (0 to t) of 4'-Fluorouridine metabolite at 20 mg/kg, po by LC-MS/MS analysis; assay type: ADME, organism-based; conditions: in vivo
[21] = Stability in SIF assessed as compound degradation measured for 24 hrs by HPLC analysis; assay type: physicochemical; conditions: simulated intestinal fluid (SIF), read-out: Drug degradation
[22] = Prodrug conversion in C57BL/6J mouse assessed as Cmax of 4'-Fluorouridine metabolite at 20 mg/kg, po by LC-MS/MS analysis; assay type: ADME, organism-based; conditions: in vivo
[23] = Prodrug conversion in Sprague-Dawley rat assessed as 4'-Fluorouridine metabolite formation in liver at 6 mg/kg, po measured for 0.5 to 24 hrs by LC-MS/MS analysis; assay type: ADME, organism-based; conditions: in vivo, time 0.5-24 hrs

`CC(C)C(=O)OC[C@@]1(F)O[C@@H](n2ccc(=O)n(COC(=O)c3cccnc3)c2=O)[C@H](OC(=O)C(C)C)[C@@H]1OC(=O)C(C)C` showed an MTD [1] of over 500 mg/kg, an AUCt [2] of 826 ng·h/mL and a Cmax [3] of 119 ng/mL. The Drug metabolism [4] was “metabolite_detected”, the AUC(0-t) [5] was 11800 ng·h/mL and the Activity [6] was “Dose-dependent-effect”. The AUCt [7] was 962 ng·h/mL, the t1/2 [8] was 12 h and the Drug metabolism [9] was “metabolite_detected”. The Activity [10] was -0.1%, the Stability [11] was “Unstable” and the Cmax [12] was 1142 ng/mL. The Activity [13] was “Dose-dependent-effect”, the Activity [14] was “Dose-dependent-effect” and the Activity [15] was “Non-toxic”. For the same compound, the AUCt [16] was 4084 ng·h/mL, the Drug metabolism [17] was “metabolite_detected” and the degraded at 24 h [18] was under 5%. For the same compound, the Activity [19] was “Non-toxic”, the AUCt [20] was 7586 ng·h/mL and the degraded at 24 h [21] was under 5%. For the same compound, the Cmax [22] was 788 ng/mL and the Drug metabolism [23] was “metabolite_detected”.
